Measurements: patent US12103952B2, “Methods for expressing proteins in axons” (Cornell University, priority 2010, dated 2024)

Legend:
[1] = test system: CREB reporter mRNA translation in DRG axons; assay: myr-dEGFP3′CREB Sindbis translation reporter in axons; assay type: cell-based, rat; settings: factor restored after NGF-free media
Source text: FIGS. 5A-C are results showing NGF-dependent translation of a CREB reporter mRNA in axons. (A) Schematic diagram of the Sindbis viral reporter construct used to monitor CREB translation. The reporter contains a myristoylated, destabilized EGFP (myr-dEGFP) with the 3′UTR of CREB, expressed under control of the Sindbis subgenomic promoter (PSG). (B) E15 DRG explant cultures were infected with Sindbis constructs expressing myr-dEGFP3′CREB on DIV3 and fluorescence (bottom panel) and phase (top panel) images, approximately 1000 μm from the cell body were collected after 24 hours. Fluorescence images are shown in inverted contrast in order to more readily visualize puncta. Scale bar, 25 μm. […] EGFP fluorescence co-localizes with a population of S6-labeled ribosomal clusters. […]
FIGS. 6A-H are data showing that axonal CREB is specifically translated in response to NGF. […] (B) E15 DRG explant cultures were infected with Sindbis constructs expressing myr-dEGFP3′RhoA or myr-dEGFP3′H1f0 on DIV3 and fluorescence images were collected after 24 h. […] (D) Axons from DIV3 DRGs were analyzed for CREB and mitochondrial localizations by immunofluorescence using CREB-specific and VDAC/porin1-specific antibodies. […] CREB mRNA was detected by FISH using a CREB specific riboprobe. […] (H) Axons of DIV3 DRG explant cultures were analyzed by immunofluorescence for NGF effectors CREB, pTrkA and pErk5 at 3 DIV. […]

4E-BP1 = assay: Phospho-4E-BP1 immunofluorescence in axons; assay type: cell-based, rat; settings: NGF 1 hour after 2 hour NGF-free media
Protocol: FIGS. 2A-E are results showing that local protein synthesis in axons is required for NGF-dependent survival. (A) Phospho-4E-BP1 levels increase in growth cones in response to NGF treatment. DRG neurons were incubated with NGF-replete or NGF-free media; phospho-4E-BP1 levels in axons were measured by immunofluorescence. Scale bar, 50 μm. (B) Quantification of total and phospho-4EBP1 in (A) p=0.012. Numbers on bars represent n axons per condition. (C) Schematic diagram of compartmented (Campenot) chambers. E15 dissociated DRG neurons are cultured in the cell body compartment and axons grow under a thinly applied silicone grease layer that seals the chamber with the Permanox® plastic culture slide. (D) Application of protein synthesis inhibitors to axons blocks NGF-mediated retrograde survival. Dissociated DRG neurons were grown in compartmentalized chambers, and vehicle or NGF was added to the axon compartment. 1 μM cycloheximide (CHX) or 40 μM anisomycin (Aniso) were added to the axon compartment concurrently with NGF media. Cell body compartments were kept NGF-free during the course of the experiment. Cells crossing the divider were retrogradely labeled with WGA-Alexa555 and only WGA-positive cell bodies were counted in the data set. Survival was assessed by TUNEL assay. […] (E) Quantification of results from (D). *p<0.001. […]

Substance: NGF: nerve growth factor
- fluorescent myr-dEGFP3′CREB puncta [1]: reappeared following restoration of NGF
- phosphorylation of 4E-BP1 in axons (4E-BP1): increased phosphorylation of 4E-BP1 at S64 and T69
